In patent US20210300908A1, “S1P1 AGONIST AND APPLICATION THEREOF” (SHIJIAZHUANG SAGACITY SRUG SEVELOPMENT CO., LTD., priority 2016, published 2021):

Experiments:
S1P1 receptor = S1P1 receptor (Homo sapiens, UniProt P21453); assay: S1P1 receptor agonistic activity (PathHunter cell strain, chemiluminescent signal detection); assay type: cell-based; conditions: PathHunter cells, agonist mode, 37° C. 90-180 minutes
Protocol: Test Method: […] Cell Processing i) Thaw the PathHunter cell strain according to the standard procedures. ii) Seed the cell in the 20 μL 384-microwell plate and incubate at 37° C. for an appropriate period. 2. Agonist i) For agonist testing, cells were incubated with the sample to be test to initiate a reaction; ii) The stock solution to be tested has been diluted 5 folds to be a buffer solution; iii) Inject the 5-fold diluted solution (5 μL) into the cells and incubate at 37° C. for 90-180 minutes. […] 3. Signal Detection i) Add 12.5 μL or 15 μL PathHunter detection reagent (50 vol. %) in one portion. Then, incubate at room temperature for 1 hour and generate the detection signal; ii) Use PerkinElmer Evision™ instrument to read the microwell plate to proceed with chemiluminescent signal detection. 4. Data Analysis i) Use CBIS data analysis system for the compound activity analysis. ii) Calculation formula: […]

[1] = Evaluation of compound pharmacokinetics in SD rats (intravenous injection and oral administration); assay type: in vivo; conditions: male, Sprague Dawley, rat, plasma, 2 mg/kg, 2 mpk; for clearance: read-out: Clearance rate; for AUC: read-out: Drug concentration integral: AUC; for half-life: read-out: Half-life period: T1/2 (converted); for bioavailability: oral, read-out: Fraction of bioavailability: F
Protocol: Aim of the experiments: To test pharmacokinetics of the compounds in SD rats. Experimental Materials: Sprague Dawley rats (male, 200-300 g, 7-9 weeks old, Shanghai Slack) Experimental Procedure: The rodent pharmacokinetic characteristics of the compounds after intravenous injection and oral administration were tested by the standard protocol. In the experiments, the transparent solution was prepared with the compounds to be test. The rats were administered single intravenous injection and oral administration. The solvent for intravenous injection and oral administration was aqueous hydroxypropyl β-cyclodextrin solution or normal saline solution with a certain concentration. Collect the blood samples within 24 hours and centrifuge at 3000 G for 15 minutes. Separate the supernatant to obtain the plasma samples. A volume of acetonitrile solution containing internal standard was added 4 times as the sample to precipitate the protein. The supernatant was obtained after centrifuge. An equal volume of water was added and then centrifuge again to collect the supernatant. The LC-MS/MS method was used to quantitatively analyze the blood drug concentration and the pharmacokinetic parameters such as peak concentration, peak time, clearance rate, half-life period, area under the curve of the drug concentration, and fraction of bioavailability, etc. were calculated.

Chain of S1P1 receptor (P21453 whole entry): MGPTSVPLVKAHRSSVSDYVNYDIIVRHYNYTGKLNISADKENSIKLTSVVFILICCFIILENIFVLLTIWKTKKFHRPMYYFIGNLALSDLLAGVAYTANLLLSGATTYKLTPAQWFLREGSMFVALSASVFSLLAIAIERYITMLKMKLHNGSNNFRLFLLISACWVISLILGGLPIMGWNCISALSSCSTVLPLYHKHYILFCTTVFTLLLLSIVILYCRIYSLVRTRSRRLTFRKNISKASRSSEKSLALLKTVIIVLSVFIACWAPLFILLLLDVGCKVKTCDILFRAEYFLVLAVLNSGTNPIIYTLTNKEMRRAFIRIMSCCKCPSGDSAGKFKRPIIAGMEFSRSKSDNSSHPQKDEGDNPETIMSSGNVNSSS

EC50 (S1P1 receptor) [nM]	SMILES	further results
< 10	CC(C)Oc1ccc(-c2nc(-c3cccc4c3C[C@@H]3OC(=O)N(CCO)[C@H]43)no2)cc1C#N (relative stereo) [Example 50]	clearance [1]: 6.59 mL/min/kg; AUC [1]: 8.52 µM·h; half-life [1]: 4.82 h; bioavailability [1]: 72.4%
< 10	CC(C)Oc1ccc(-c2nc(-c3cccc4c3CC3CC(=O)N(CCO)C43)no2)cc1C#N (stereo not shown) [Example 1 Mixture]	
< 10	CC(C)Oc1ccc(-c2ncc(-c3cccc4c3CC3CC(=O)N(CCO)C43)s2)cc1C#N (stereo not shown) [Example 2]	
< 10	CC(C)Oc1ccc(-c2nnc(-c3cccc4c3CC3CC(=O)N(CCO)C43)s2)cc1C#N (stereo not shown) [Example 3]	
< 10	CC(C)Oc1ccc(-c2ccc(-c3cccc4c3CC3CC(=O)N(CCO)C43)s2)cc1C#N (stereo not shown) [Example 5]	
< 10	CC(C)Oc1ccc(-c2nc(-c3cccc4c3CC3CC(=O)N(CCO)C43)ns2)cc1C#N (stereo not shown) [Example 6]	
< 10	CC(C)Oc1ccc(-c2nsc(-c3cccc4c3CC3CC(=O)N(CCO)C43)n2)cc1C#N (stereo not shown) [Example 7]	
< 10	CC(C)Oc1ccc(-c2nc(-c3cccc4c3CC3CC(=O)N(CCC(=O)O)C43)no2)cc1C#N (stereo not shown) [Example 9]	
< 10	CC(C)Oc1ccc(-c2nc(-c3cccc4c3CC3CC(=O)N(CCCC(=O)O)C43)no2)cc1C#N (stereo not shown) [Example 10]	
< 10	CC(C)Oc1ccc(-c2nc(-c3cccc4c3CC3CC(=O)N(CCCCC(=O)O)C43)no2)cc1C#N (stereo not shown) [Example 11]	
< 10	COCCN1C(=O)CC2Cc3c(-c4noc(-c5ccc(OC(C)C)c(C#N)c5)n4)cccc3C21 (stereo not shown) [Example 12]	
< 10	CC(C)Oc1ccc(-c2nc(-c3cccc4c3CC3CC(=O)N(CCS(C)(=O)=O)C43)no2)cc1C#N (stereo not shown) [Example 13]	
< 10	CC(C)Oc1ccc(-c2nc(-c3cccc4c3CC3CC(=O)N(CC(O)CO)C43)no2)cc1C#N (stereo not shown) [Example 14]	clearance [1]: 7.22 mL/min/kg; AUC [1]: 5.76 µM·h; half-life [1]: 3.27 h; bioavailability [1]: 59%
10 to 100	CC(C)Oc1ccc(-c2nc(-c3cccc4c3CC3CC(=O)N(CC(=O)N(C)C)C43)no2)cc1C#N (stereo not shown) [Example 15]	
> 100	O=C1CC2Cc3c(-c4noc(-c5ccc(OC(F)F)cc5)n4)cccc3C2N1CCO (stereo not shown) [Example 16]	
> 100	N#Cc1cccc(-c2nc(-c3cccc4c3CC3CC(=O)N(CCO)C43)no2)c1 (stereo not shown) [Example 17]	
> 100	COc1ccc(-c2nc(-c3cccc4c3CC3CC(=O)N(CCO)C43)no2)cc1 (stereo not shown) [Example 18]	
> 100	O=C1CC2Cc3c(-c4noc(-c5ccc(OC(F)(F)F)cc5)n4)cccc3C2N1CCO (stereo not shown) [Example 19]	
> 100	CC(C)Oc1cccc(-c2nc(-c3cccc4c3CC3CC(=O)N(CCO)C43)no2)c1 (stereo not shown) [Example 20]	
> 100	O=C1CC2Cc3c(-c4noc(-c5ccc(OC6CC6)cc5)n4)cccc3C2N1CCO (stereo not shown) [Example 21]	
> 100	CC(C)Oc1ccccc1-c1nc(-c2cccc3c2CC2CC(=O)N(CCO)C32)no1 (stereo not shown) [Example 22]	
> 100	O=C1CC2Cc3c(-c4noc(-c5ccc(OCC6CC6)cc5)n4)cccc3C2N1CCO (stereo not shown) [Example 23]	
> 100	COCOc1ccc(-c2nc(-c3cccc4c3CC3CC(=O)N(CCO)C43)no2)cc1 (stereo not shown) [Example 24]	
< 10	CC(C)Oc1ccc(-c2nc(-c3cccc4c3CC3CC(=O)N(CCO)C43)no2)cc1Br (stereo not shown) [Example 25]	
< 10	CC(C)Oc1ccc(-c2nc(-c3cccc4c3CC3CC(=O)N(CCO)C43)no2)cc1Cl (stereo not shown) [Example 26]	clearance [1]: 7.5 mL/min/kg; AUC [1]: 4.35 µM·h; half-life [1]: 26.7 h; bioavailability [1]: 88.2%
< 10	CC(C)Oc1ccc(-c2nc(-c3cccc4c3CC3CC(=O)N(CCO)C43)no2)cc1C(F)F (stereo not shown) [Example 27]	clearance [1]: 8.86 mL/min/kg; AUC [1]: 4.78 µM·h; half-life [1]: 21.2 h; bioavailability [1]: 92.6%
> 100	CN(C)CCOc1ccc(-c2nc(-c3cccc4c3CC3CC(=O)N(CCO)C43)no2)cc1 (stereo not shown) [Example 28]	

EC50 (S1P1 receptor) [nM]	SMILES	further results
> 100	Cc1nc(C)c(-c2nc(-c3cccc4c3CC3CC(=O)N(CCO)C43)no2)o1 (stereo not shown) [Example 29]	
> 100	CCCc1nnsc1-c1nc(-c2cccc3c2CC2CC(=O)N(CCO)C32)no1 (stereo not shown) [Example 30]	
> 100	O=C1CC2Cc3c(-c4noc(-c5nc6ccccn6c5F)n4)cccc3C2N1CCO (stereo not shown) [Example 31]	
> 100	O=C1CC2Cc3c(-c4noc(-c5csc(-c6ccccc6)n5)n4)cccc3C2N1CCO (stereo not shown) [Example 32]	
> 100	CN1CCc2nc(-c3nc(-c4cccc5c4CC4CC(=O)N(CCO)C54)no3)sc2C1 (stereo not shown) [Example 33]	
> 100	CC(C)c1ncc(-c2nc(-c3cccc4c3CC3CC(=O)N(CCO)C43)no2)s1 (stereo not shown) [Example 34]	
> 100	O=C1CC2Cc3c(-c4noc(-c5cnc6ncccn56)n4)cccc3C2N1CCO (stereo not shown) [Example 35 Compound 35-2]	
> 100	O=C1CC2Cc3c(-c4noc(-c5cn6cccnc6n5)n4)cccc3C2N1CCO (stereo not shown) [Example 35 Compound 35-3]	
> 100	O=C1CC2Cc3c(-c4noc(-c5cn6c(n5)CCCC6)n4)cccc3C2N1CCO (stereo not shown) [Example 36]	
> 100	O=C1CC2Cc3c(-c4noc(-c5cc(-c6nccs6)on5)n4)cccc3C2N1CCO (stereo not shown) [Example 37]	
> 100	O=C1CC2Cc3c(-c4noc(-c5cn(Cc6ccccc6)nn5)n4)cccc3C2N1CCO (stereo not shown) [Example 38]	
10 to 100	CC(C)Oc1ccc(-c2nc(-c3cccc4c3CC3CC(=O)N(CCO)C43)no2)cc1 (stereo not shown) [Example 39]	
< 10	CC(C)Oc1ccc(-c2nc(-c3cccc4c3CC3CC(=O)N(CCO)C43)no2)cc1OC(F)F (stereo not shown) [Example 40]	clearance [1]: 14.1 mL/min/kg; AUC [1]: 0.444 µM·h; half-life [1]: 10.7 h; bioavailability [1]: 82.3%
> 100	CC(C)Oc1ccc(-c2nc(-c3cccc4c3CC3CC(=O)N(CCO)C43)no2)cc1OCCN(C)C (stereo not shown) [Example 41]	
> 100	CC(C)Oc1ccc(-c2nc(-c3cccc4c3CC3CC(=O)N(CCO)C43)no2)c(C#N)c1 (stereo not shown) [Example 42]	
10 to 100	CC(C)Oc1ccc(-c2nc(-c3cccc4c3CC3CC(=O)N(CCO)C43)no2)cc1S(C)(=O)=O (stereo not shown) [Example 43]	
10 to 100	COc1cc(-c2nc(-c3cccc4c3CC3CC(=O)N(CCO)C43)no2)cc(C2CCCC2)n1 (stereo not shown) [Example 44]	
< 10	CC(C)Oc1ccc(-c2nc(-c3cccc4c3CC3CCC(=O)N(CCO)C43)no2)cc1C#N (stereo not shown) [Example 45]	
< 10	CC(C)Oc1ccc(-c2nc(-c3cccc4c3CCC3CC(=O)N(CCO)C43)no2)cc1C#N (stereo not shown) [Example 46]	
< 10	CC(C)Oc1ccc(-c2nc(-c3cccc4c3CC3CC(=O)N(CCOS(=O)(=O)O)[C@H]43)no2)cc1C#N (stereo partly shown) [Example 47]	
10 to 100	CC(C)Oc1ccc(-c2nc(-c3cccc4c3CC3CCN(CCO)C43)no2)cc1C#N (stereo not shown) [Example 49]	
< 10	CC(C)Oc1ccc(-c2nnc(-c3cccc4c3C[C@@H]3CC(=O)N(CCO)[C@H]43)o2)cc1C#N [Example 51]	
< 10	CC(C)Oc1ccc(-c2nc(-c3cccc4c3CC3CCN(CC(=O)O)C43)no2)cc1C#N (stereo not shown) [Example 52]	
< 10	CC(C)Oc1ccc(-c2nc(-c3cccc4c3C[C@@H]3CCN(C5CC(C(=O)O)C5)C43)no2)cc1C#N (stereo partly shown) [Example 53]	
10 to 100	CC(C)Oc1ccc(-c2nc(-c3cccc4c3CC3CC(=O)N(CCO)[C@H]43)n[nH]2)cc1C#N (stereo partly shown) [Example 54]	
10 to 100	CC(C)Oc1ccc(-c2nc(-c3cccc4c3C[C@@H]3CC(=O)N([C@@H](CO)C(C)C)C43)no2)cc1C#N (stereo partly shown) [Example 55]	
< 10	CC(C)Oc1ccc(-c2nc(-c3cccc4c3C[C@@H]3CC(=O)N([C@H](C)CO)C43)no2)cc1C#N (stereo partly shown) [Example 56]	clearance [1]: 14.6 mL/min/kg; AUC [1]: 3.32 µM·h; half-life [1]: 1.63 h; bioavailability [1]: 66.7%

SMILES	EC50 (S1P1 receptor) [nM]	further results
CC(C)Oc1ccc(-c2ncc(-c3cccc4c3CC3CC(=O)N(CCO)C43)o2)cc1C#N (stereo not shown) [Example 4]	< 10	
